Results from PubChem BioAssay (NCI).
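Five concentrations, 48 hours, 96-well plates. GI50 marks 50% less growth. At the TGI there is no net growth.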

Legend:
Experiment in all cases: DTP human tumour cell line panel, 48 h
UACC-257 melanoma = system: UACC-257 melanoma
COLO 205 colon = system: COLO 205 colon
HCT-116 colon = system: HCT-116 colon
SN12C renal = system: SN12C renal
RPMI-8226 leukemia = system: RPMI-8226 leukemia
LOX IMVI melanoma = system: LOX IMVI melanoma
NCI-H23 lung = system: NCI-H23 lung
OVCAR-5 ovarian = system: OVCAR-5 ovarian

SMILES | TGI (UACC-257 melanoma) [µM] | TGI (COLO 205 colon) [µM] | TGI (HCT-116 colon) [µM] | TGI (SN12C renal) [µM] | TGI (RPMI-8226 leukemia) [µM] | TGI (LOX IMVI melanoma) [µM] | TGI (NCI-H23 lung) [µM] | TGI (OVCAR-5 ovarian) [µM] | GI50 (LOX IMVI melanoma) [µM] | GI50 (OVCAR-5 ovarian) [µM] | GI50 (UACC-257 melanoma) [µM] | GI50 (COLO 205 colon) [µM] | GI50 (HCT-116 colon) [µM] | GI50 (SN12C renal) [µM] | GI50 (NCI-H23 lung) [µM] | GI50 (RPMI-8226 leukemia) [µM]
O=C1c2ccccc2C(=O)N1C/C=C/CO | > 100 | > 100 | > 100 | > 100 | > 100 | – | – | – | – | – | – | – | – | – | – | –
O=C(COC(=O)c1cccc2c(=O)c3ccccc3[nH]c12)Nc1ccccc1 | > 100 | 51.6 | 88.7 | > 100 | 83.5 | 73.2 | 58.9 | – | – | – | – | – | – | – | – | –
O=C(NC1C2CC3CC(C2)CC1C3)c1cc(/C=C/c2ccccc2)[nH]c(=S)n1 (stereo unspecified) | > 100 | > 100 | > 100 | – | > 100 | > 100 | > 100 | > 100 | – | – | – | – | – | – | – | –
N#CCC(=O)N/N=C(\C(=O)Nc1ccc(Cl)c(Cl)c1)C1CN(c2ccccc2)N=C1N (stereo unspecified) | > 100 | > 100 | > 100 | > 100 | > 100 | > 100 | > 100 | > 100 | – | – | – | – | – | – | – | –
CSCCOC(=O)C(=[N+]=[N-])c1ccc([N+](=O)[O-])cc1 | > 100 | > 100 | > 100 | > 100 | > 100 | > 100 | > 100 | > 100 | – | – | – | – | – | – | – | –
Clc1cc2n[se]nc2cc1Cl | > 100 | – | > 100 | > 100 | > 100 | > 100 | > 100 | > 100 | – | – | – | – | – | – | – | –
COc1cc2c(cc1OC)C(=O)Cc1ccc(OC)c(OC)c1CN(C)CC2 | > 100 | > 100 | > 100 | > 100 | > 100 | > 100 | > 100 | > 100 | – | – | – | – | – | – | – | –
c1ccc2c(c1)[nH]c1c2nc2ncccn21 | > 100 | – | > 100 | > 100 | – | – | > 100 | > 100 | – | – | – | – | – | – | – | –
COC(=O)c1ccc(Cl)cc1NC(=O)C1CCCCC1 | > 100 | > 100 | > 100 | > 100 | > 100 | – | > 100 | > 100 | – | – | – | – | – | – | – | –
O=C1CC(O)(c2ccccc2)C(c2ccccc2)=C1c1ccccc1 (stereo unspecified) | > 100 | 35.7 | – | > 100 | 57.7 | > 100 | > 100 | > 100 | – | – | – | – | – | – | – | –
CC(C)(C)OC(=O)NC(CO)c1cccc(OCc2ccccc2)c1 (stereo unspecified) | 99.4 | > 100 | > 100 | > 100 | > 100 | > 100 | > 100 | > 100 | – | – | – | – | – | – | – | –
COc1ccc2oc(C(=O)O)c3c2c1CCC3 | > 100 | > 100 | > 100 | > 100 | > 100 | > 100 | > 100 | – | – | – | – | – | – | – | – | –
N#C/C(=C/Sc1ccccc1)C(=O)O | > 100 | 47.5 | 55.8 | 57.5 | > 100 | 24.5 | > 100 | 74.6 | – | – | – | – | – | – | – | –
COc1ccc(OC(C(=O)O)c2ccccc2)c2c1CCCC2=O (stereo unspecified) | > 100 | > 100 | > 100 | > 100 | > 100 | > 100 | > 100 | > 100 | – | – | – | – | – | – | – | –
Cc1nn(-c2nc3ccccc3s2)c2c1C(=O)c1ccccc1-2 | > 100 | > 100 | > 100 | > 100 | > 100 | > 100 | > 100 | > 100 | – | – | – | – | – | – | – | –
Fc1cccc2c1cc1ccc3cccc4ccc2c1c34 | > 100 | > 100 | > 100 | > 100 | – | > 100 | > 100 | > 100 | – | – | – | – | – | – | – | –
NCCN1C(=O)C2C3c4ccccc4C(c4ccccc43)C2C1=O (stereo unspecified) | > 100 | > 100 | > 100 | > 100 | > 100 | – | > 100 | > 100 | – | – | – | – | – | – | – | –
CNC(=O)c1cccc2c(Nc3ccc(NS(C)(=O)=O)cc3OC)c3cccc(C)c3nc12 | 10.6 | 5.24 | 2.86 | 0.927 | 1.7 | 3.17 | 0.58 | 3.54 | – | – | – | – | – | – | – | –
CCOc1ccccc1NC(=O)CCc1n[nH]c(=S)o1 | > 100 | – | > 100 | > 100 | > 100 | > 100 | > 100 | – | – | – | – | – | – | – | – | –
CCOC(=O)/C(C#N)=C1/C(O)=C(C(=O)OC)C(C(=O)OC)=C1C(=O)OC | > 100 | > 100 | – | > 100 | > 100 | > 100 | > 100 | > 100 | – | – | – | – | – | – | – | –
O=S(O)CCCSSc1ccccc1 | > 100 | > 100 | > 100 | > 100 | – | > 100 | > 100 | > 100 | – | – | – | – | – | – | – | –
CCC[CH2][Sn]1([CH2]CCC)[O]C(=O)c2ccc(C)cc2[O]1 | 1.49 | 1.61 | 2.18 | 1.77 | 0.76 | 0.357 | 1.76 | 3.05 | 0.184 | 1.67 | 0.316 | 0.465 | 0.985 | 0.511 | 0.472 | 0.21
